Experimental findings from patent US20060135569A1, “Use of benzisoselenazolone compounds against ischemic myocardial damage” (priority 2002, published 2006) are described below.

Marks after values point to notes of the source that are not given here.

Test [1] concerns rats subjected to myocardial ischemia/reperfusion insult. The experiment in a line: Cardiac function and hemodynamics in rats subjected to myocardial ischemia/reperfusion. It counts as in vivo, rat. The settings on record: 30 mg/kg orally. The protocol: Method: Male SD rats weighing 300-350 g were fasted for 12 hrs and anesthetized by i.p. treatment with 20% Urethane (0.5 ml/100 g, 1 g/kg). Polyethylene tubes (PE-50) were inserted into the left femoral artery, left femoral vein, right femoral vein and the left ventricle. The left femoral artery was cannulated for blood collection, and the left femoral vein was cannulated for liquid compensation, the right femoral artery was cannulated for blood pressure detection, the left ventricle was cannulated for ventricular pressure detection, left femoral artery and ventricle were cannulated and the catheter was linked with pressure transducer by triplet. Signals were acquired by oscillograph and multi-channel biodynamic recorder linked with the pressure transducer. Rats in drug-treated group were orally treated with IMM-004 at 30 mg/kg, while rats in vehicle control group was orally treated with an equal volume of vehicle (PEG). Dissect the trachea and artificial respiration was performed via respirator after thoracotomy (2 ml/100 g). A left thoracotomy was performed from the forth to fifth intercostals space by cutting off the forth and fifth rib 2 mm from the left border of sternum, and the pericardium was opened to expose the heart. A 3.0 silk ligature was placed under the left anterior descending coronary artery. The heart was taken back to the chest and allowed to stabilize for 10 min. The ends of the suture were threaded through a polyethylene tube (3×8 mm) to form a snare. Pull the ends of the suture taut and clamp the snare with a hemostat to occlude the coronary artery. Coronary artery occlusion was verified by epicardial cyanosis and subsequent decrease in arterial blood pressure. Reprefusion of the heart was initiated via unclamping the hemostat and loosening the snare for 15 min. Left ventricular systolic pressure (LVSP), left ventricular end-diastolic pressure (LVEDP), and maximum rate of left ventricular pressure (±dp/dtmax), artery systolic pressure (SP), artery diastolic pressure (DP), mean artery pressure (MAP) and heart rate (HR) were continuously recorded every 10 min before and after thoracotomy and during the period of ischemia (15 min) and reperfusion (1 h).

Test [2] has as its system acute myocardial ischemia in anesthetized dogs. As to the kind of experiment: Acute myocardial ischemia and infarction in anesthetized dogs. Type of test: in vivo, dog. How it is done: Dogs were divided into three groups: 1, vehicle control group, PEG 1 ml/kg, n=5; 2, dilthiazem group, 5 mg/kg, n=5; 3, IMM-004 group, 30 mg/kg, n=5. The tested drugs were prepared in distilled water at volume of 1 ml/kg. The tested items were administrated via duodenum by animals.

[3] abbreviates: N-BT staining, Dilthiazem 5 mg/kg, IMM-004 30 mg/kg, % according to b137.

In the case of `O=c1c2cc(Cl)ccc2[se]n1-c1ccccn1` [IMM-004, 5-chloro-2-(2-pyridyl)-1,2-benz-isoselenazol-3(2H)-one], in test [1], the “+dp/dtmax” value is “about +110 mmHg/s”, the Heart rate entry is listed as “not influenced”, the MAP amounted to 80 mmHg and the SBP is 100 mmHg. The same compound gave an LVSP in test [1] (decreased steadily from 120 mmHg) of 100 mmHg. The LVEDP result in test [1] (equal to the baseline) is reported as “about −6 mmHg”. Besides, the “−dp/dtmax” value in test [1] (reduced from 100 mmHg/s) stood at 70 mmHg/s. Further, in test [2] (30 mg/kg), the “infarction size (of heart) decrease compared with the vehicle control” value is 69.18% and the “infarction size (of ventricle) decrease compared with the vehicle control” value is 67.94%. Moreover, in test [2] (30 mg/kg via duodenum, 180 min after administration), the “Σ-ST decreased by” value is recorded as 53.90±20.60%. Moreover, the “severity of myocardial ischemia (Σ-ST)” value in test [2] (30 mg/kg via duodenum, 180 min after administration, from 325.20±55.95 mV) amounted to 146.80±60.25 mV. In addition, in test [2] (30 mg/kg, 120 min and 180 min after administration, vs baseline), the “Coronary flow (under heading arterial and venous blood oxygen content)” value was “significantly increased”. Also, in test [2] (30 mg/kg, N-BT staining), the “Myocardial infarction size, % of heart” value worked out at 2.04±0.93% and the “Myocardial infarction size, % of ventricular” value came to 5.08±2.00%. For the same compound, in test [2] (30 mg/kg, vs vehicle control), the “elevation of LDH activity” value is given as “no effect”, the “elevation of serum AST” value is “significantly inhibited” and the “elevation of serum CK” value is reported as “significantly inhibited”. In test [2] (30 min after treatment, 30 mg/kg), the “Coronary flow increase verse the baseline” value was 15.02±22.16%. In test [2] (setting [3]), the “Infarction area/ heart area” value is 2.04 ± 0.93 and the Infarction area/ventricle area came out at 5.08 ± 2.00. Further, in test [2] (N-BT staining, Dilthiazem 5 mg/kg, IMM-004 30 mg/kg, X ± SD), the “Infarction area mm^2” value was 255.70 ± 58.2*** mm^2. Besides, the “Myocardial infarction size, in words” value in test [2] (N-BT staining, IMM-004 30 mg/kg, dilthiazem 5 mg/kg) is “significantly reduced”. Further, the “Coronary flows, in words” value in test [2] (after treatment, dilthiazem 5 mg/kg, IMM-004 30 mg/kg) is listed as “significantly increased”.
